{
  "source": "paper PMC10202811",
  "about": "(Nature Medicine, 2023)",
  "experiment": "Plasma pharmacokinetics of lorlatinib at steady state (LC-MS/MS, non-compartmental analysis)",
  "format": "in vivo, human",
  "settings": "human; for Cmax: read-out: Cmax; for Tmax: read-out: Tmax",
  "description": "Lorlatinib was isolated from human plasma by a liquid-iquid extraction procedure. […] A linear-log trapezoidal method was used [NT] A best-fit method was used to estimate terminal elimination and to extrapolate any plasma concentration versus time profiles to compute [NT].",
  "key": {"[1]": {"settings": "in vivo, 115 mg/m2, Cycle 1 Day 1, Cohort B2, 115 mg/m2 per dose"}, "[2]": {"settings": "in vivo, 115 mg/m2, Cycle 1 Day 1, Cohort A1, 115 mg/m2 per dose, individual patients"}, "[3]": {"settings": "in vivo, 115 mg/m2, Cycle 1 Day 1, patient N0773, Cohort B2, 115 mg/m2 per dose, Dose 75"}, "[4]": {"settings": "in vivo, 115 mg/m2, Cycle 1 Day 15, Cohort A1, 115 mg/m2 per dose, individual patients"}, "[5]": {"settings": "in vivo, 115 mg/m2, Cycle 1 Day 15, patient N0773, Cohort B2, 115 mg/m2 per dose, Dose 75"}, "[6]": {"settings": "plasma, oral, 45 mg/m2, Cohort A1, 45 mg/m2 per dose, C1D15, Geometric Mean, N 3"}, "[7]": {"settings": "plasma, oral, 45 mg/m2, Cohort A1, 45 mg/m2 per dose, C1D15, Median, N 3"}, "[8]": {"settings": "plasma, oral, 45 mg/m2, Cycle 1 Day 1, Cohort A1, 45 mg/m2 per dose, individual patients"}, "[9]": {"settings": "plasma, oral, 60 mg/m2, Cohort A1, 60 mg/m2 per dose, C1D15, Median, N 3"}},
  "note": "Read-outs that look alike come from different tables or passages of the source.",
  "data": [
    {"smiles": "C[C@H]1Oc2cc(cnc2N)-c2c(nn(C)c2C#N)CN(C)C(=O)c2ccc(F)cc21", "note": "[Lorlatinib, (10R)-7-amino-12-fluoro-2,10,16-trimethyl-15-oxo-10,15,16,17-tetrahydro-2H-8,4-(metheno)pyrazolo[4,3-h][2,5,11]-benzoxadiazacyclotetradecine-3-carbonitrile]", "values": [
      {"measurement": "AUC", "setting": "in vivo, 115 mg/m2, Cycle 1 Day 1, Cohort B2, 115 mg/m2 per dose, read-out: AUCall", "result": 17700, "unit": "ng·h/mL"},
      {"measurement": "Cmax", "setting": "[1]", "result": 2320, "unit": "ng/mL"},
      {"measurement": "Tmax", "setting": "[1]", "result": 1, "unit": "h"},
      {"measurement": "AUC(0-t)", "setting": "[2]", "result": 14700, "unit": "ng·h/mL"},
      {"measurement": "MRT last", "setting": "[2]", "result": 8.5, "unit": "h"},
      {"measurement": "AUC", "setting": "in vivo, 115 mg/m2, Cycle 1 Day 1, Cohort A1, 115 mg/m2 per dose, individual patients, read-out: AUCall", "result": 14700, "unit": "ng·h/mL"},
      {"measurement": "Cmax", "setting": "[2]", "result": 1440, "unit": "ng/mL"},
      {"measurement": "Tmax", "setting": "[2]", "result": 2, "unit": "h"},
      {"measurement": "AUC(0-t)", "setting": "[3]", "result": 10800, "unit": "ng·h/mL"},
      {"measurement": "MRT last", "setting": "[3]", "result": 8.24, "unit": "h"},
      {"measurement": "AUC", "setting": "in vivo, 115 mg/m2, Cycle 1 Day 1, patient N0773, Cohort B2, 115 mg/m2 per dose, Dose 75, read-out: AUCall", "result": 10800, "unit": "ng·h/mL"},
      {"measurement": "Cmax", "setting": "[3]", "result": 1660, "unit": "ng/mL"},
      {"measurement": "MRT inf", "setting": "in vivo, 115 mg/m2, Cycle 1 Day 15, Cohort A1, 115 mg/m2 per dose, read-out: MRTINF_obs", "result": 11.7, "unit": "h"},
      {"measurement": "MRT inf", "setting": "in vivo, 115 mg/m2, Cycle 1 Day 15, Cohort A1, 115 mg/m2 per dose, read-out: MRTINF_pred", "result": 11.7, "unit": "h"},
      {"measurement": "MRT inf", "setting": "in vivo, 115 mg/m2, Cycle 1 Day 15, Cohort B2, 115 mg/m2 per dose, read-out: MRTINF_obs", "result": 13.5, "unit": "h"},
      {"measurement": "MRT inf", "setting": "in vivo, 115 mg/m2, Cycle 1 Day 15, Cohort B2, 115 mg/m2 per dose, read-out: MRTINF_pred", "result": 13.5, "unit": "h"},
      {"measurement": "Tmax", "setting": "in vivo, 115 mg/m2, Cycle 1 Day 15, Cohort B2, 115 mg/m2 per dose", "result": 1, "unit": "h"},
      {"measurement": "AUC(0-t)", "setting": "[4]", "result": 8210, "unit": "ng·h/mL"},
      {"measurement": "AUC(0-inf)", "setting": "in vivo, 115 mg/m2, Cycle 1 Day 15, Cohort A1, 115 mg/m2 per dose, individual patients, read-out: AUCINF_obs", "result": 10800, "unit": "ng·h/mL"},
      {"measurement": "AUC(0-inf)", "setting": "in vivo, 115 mg/m2, Cycle 1 Day 15, Cohort A1, 115 mg/m2 per dose, individual patients, read-out: AUCINF_pred", "result": 10700, "unit": "ng·h/mL"},
      {"measurement": "AUC", "setting": "in vivo, 115 mg/m2, Cycle 1 Day 15, Cohort A1, 115 mg/m2 per dose, individual patients, read-out: AUC_TAU", "result": 8210, "unit": "ng·h/mL"},
      {"measurement": "AUC", "setting": "in vivo, 115 mg/m2, Cycle 1 Day 15, Cohort A1, 115 mg/m2 per dose, individual patients, read-out: AUCall", "result": 8210, "unit": "ng·h/mL"},
      {"measurement": "Cmax", "setting": "[4]", "result": 1350, "unit": "ng/mL"},
      {"measurement": "MRT inf", "setting": "in vivo, 115 mg/m2, Cycle 1 Day 15, Cohort A1, 115 mg/m2 per dose, individual patients, read-out: MRTINF_obs", "result": 15.8, "unit": "h"},
      {"measurement": "MRT inf", "setting": "in vivo, 115 mg/m2, Cycle 1 Day 15, Cohort A1, 115 mg/m2 per dose, individual patients, read-out: MRTINF_pred", "result": 15.7, "unit": "h"},
      {"measurement": "AUC(0-t)", "setting": "[5]", "result": 5370, "unit": "ng·h/mL"},
      {"measurement": "AUC(0-inf)", "setting": "in vivo, 115 mg/m2, Cycle 1 Day 15, patient N0773, Cohort B2, 115 mg/m2 per dose, Dose 75, read-out: AUCINF_obs", "result": 6990, "unit": "ng·h/mL"},
      {"measurement": "AUC(0-inf)", "setting": "in vivo, 115 mg/m2, Cycle 1 Day 15, patient N0773, Cohort B2, 115 mg/m2 per dose, Dose 75, read-out: AUCINF_pred", "result": 6860, "unit": "ng·h/mL"},
      {"measurement": "AUC", "setting": "in vivo, 115 mg/m2, Cycle 1 Day 15, patient N0773, Cohort B2, 115 mg/m2 per dose, Dose 75, read-out: AUC_TAU", "result": 6950, "unit": "ng·h/mL"},
      {"measurement": "AUC", "setting": "in vivo, 115 mg/m2, Cycle 1 Day 15, patient N0773, Cohort B2, 115 mg/m2 per dose, Dose 75, read-out: AUCall", "result": 5370, "unit": "ng·h/mL"},
      {"measurement": "Cmax", "setting": "[5]", "result": 1780, "unit": "ng/mL"},
      {"measurement": "MRT inf", "setting": "in vivo, 115 mg/m2, Cycle 1 Day 15, patient N0773, Cohort B2, 115 mg/m2 per dose, Dose 75, read-out: MRTINF_obs", "result": 4.18, "unit": "h"},
      {"measurement": "MRT inf", "setting": "in vivo, 115 mg/m2, Cycle 1 Day 15, patient N0773, Cohort B2, 115 mg/m2 per dose, Dose 75, read-out: MRTINF_pred", "result": 3.73, "unit": "h"},
      {"measurement": "AUC", "setting": "in vivo, 115 mg/m2, steady state, Cohort A1, 115 mg/m^2 QD, (CV), read-out: AUCtau", "result": 8640, "unit": "ng·h/mL"},
      {"measurement": "Cmax", "setting": "in vivo, 115 mg/m2, steady state, Cohort A1, 115 mg/m^2 QD, (CV)", "result": 1210, "unit": "ng/mL"},
      {"measurement": "Tmax", "setting": "in vivo, 115 mg/m2, steady state, Cohort A1, 115 mg/m^2 QD", "result": 1.5, "unit": "h"},
      {"measurement": "AUC", "setting": "in vivo, 115 mg/m2, steady state, Cohort B2 (with topotecan/cyclophosphamide), 115 mg/m^2 QD, (CV), read-out: AUCtau", "result": 7950, "unit": "ng·h/mL"},
      {"measurement": "Cmax", "setting": "in vivo, 115 mg/m2, steady state, Cohort B2 (with topotecan/cyclophosphamide), 115 mg/m^2 QD, (CV)", "result": 1460, "unit": "ng/mL"},
      {"measurement": "Tmax", "setting": "in vivo, 115 mg/m2, steady state, Cohort B2 (with topotecan/cyclophosphamide), 115 mg/m^2 QD", "result": 1, "unit": "h"},
      {"measurement": "AUC", "setting": "in vivo, 150 mg per dose, Cycle 1 Day 1, Cohort A2, 150 mg per dose, read-out: AUCall", "result": 8360, "unit": "ng·h/mL"},
      {"measurement": "AUC", "setting": "in vivo, 150 mg per dose, Cycle 1 Day 15, Cohort A2, 150 mg per dose, read-out: AUCall", "result": 8300, "unit": "ng·h/mL"},
      {"measurement": "AUC", "setting": "in vivo, 150 mg, Cycle 1 Day 15, Cohort A2, 150 mg per dose, read-out: AUC_TAU", "result": 8300, "unit": "ng·h/mL"},
      {"measurement": "AUC", "setting": "plasma, oral, 45 mg/m2, Cohort A1, 45 mg/m2 per dose, C1D15, Geometric Mean, N 3, read-out: AUC_TAU", "result": 2470, "unit": "ng·h/mL"},
      {"measurement": "Cmax", "setting": "[6]", "result": 355, "unit": "ng/mL"},
      {"measurement": "Tmax", "setting": "[6]", "result": 1.26, "unit": "h"},
      {"measurement": "AUC", "setting": "plasma, oral, 45 mg/m2, Cohort A1, 45 mg/m2 per dose, C1D15, Median, N 3, read-out: AUC_TAU", "result": 3220, "unit": "ng·h/mL"},
      {"measurement": "Cmax", "setting": "[7]", "result": 287, "unit": "ng/mL"},
      {"measurement": "Tmax", "setting": "[7]", "result": 1, "unit": "h"},
      {"measurement": "Tmax", "setting": "plasma, oral, 45 mg/m2, Cohort A1, 45 mg/m2 per dose, C1D15, individual patient", "result": 1, "unit": "h"},
      {"measurement": "MRT last", "setting": "[8]", "result": 7.18, "unit": "h"},
      {"measurement": "Tmax", "setting": "[8]", "result": 1, "unit": "h"},
      {"measurement": "Tmax", "setting": "plasma, oral, 45 mg/m2, Cycle 1 Day 15, Cohort A1, 45 mg/m2 per dose, individual patients", "result": 1, "unit": "h"},
      {"measurement": "AUC", "setting": "plasma, oral, 45 mg/m^2, steady state (cycle 1, day 15), Cohort A1, 45 mg/m^2 QD, (CV), read-out: AUCtau", "result": 2470, "unit": "ng·h/mL"},
      {"measurement": "Cmax", "setting": "plasma, oral, 45 mg/m^2, steady state (cycle 1, day 15), Cohort A1, 45 mg/m^2 QD, (CV)", "result": 354, "unit": "ng/mL"},
      {"measurement": "Tmax", "setting": "plasma, oral, 45 mg/m^2, steady state (cycle 1, day 15), Cohort A1, 45 mg/m^2 QD", "result": 1, "unit": "h"},
      {"measurement": "AUC", "setting": "plasma, oral, 60 mg/m2, Cohort A1, 60 mg/m2 per dose, C1D15, Geometric Mean, N 3, read-out: AUC_TAU", "result": 3930, "unit": "ng·h/mL"},
      {"measurement": "Cmax", "setting": "plasma, oral, 60 mg/m2, Cohort A1, 60 mg/m2 per dose, C1D15, Geometric Mean, N 3", "result": 492, "unit": "ng/mL"},
      {"measurement": "AUC", "setting": "plasma, oral, 60 mg/m2, Cohort A1, 60 mg/m2 per dose, C1D15, Median, N 3, read-out: AUC_TAU", "result": 4140, "unit": "ng·h/mL"},
      {"measurement": "Cmax", "setting": "[9]", "result": 558, "unit": "ng/mL"},
      {"measurement": "Tmax", "setting": "[9]", "result": 2, "unit": "h"},
      {"measurement": "AUC", "setting": "plasma, oral, 60 mg/m2, Cohort A1, 60 mg/m2 per dose, C1D15, individual patient, read-out: AUC_TAU", "result": 4140, "unit": "ng·h/mL"}
    ]}
  ]
}
